Source: patent US20240293318A1, “CLEAVABLE LINKER-CONTAINING IONIZABLE LIPIDS AND LIPID CARRIERS FOR THERAPEUTIC COMPOSITIONS” (Flagship Pioneering Innovations VII, LLC, priority 2023, published 2024)

Legend:
[1] = Zeta potential assay of LNPs; assay type: physicochemical; details: LNP, hEPO mRNA, Lipid:Cholesterol:DSPC:PEG-2k 50:38.5:10:1.5, N:P 6
Description: (§1) Various lipid nanoparticle compositions comprising a nucleic acid payload are characterized by a variety of methods. For example, dynamic light scattering (DLS) is used to determine particle sizes (Wyatt Dynapro Platereader 111). In addition, instruments such as the Zetasizer Nano ZS (Malvern Instruments Ltd) are used to measure multiple physical properties of a lipid nanoparticle composition, such as particle size, polydispersity index (PDI), and zeta potential. Fluorescence-based assays are used to determine the efficiencies of nucleic acid encapsulation in the lipid nanoparticles. Fluorescence-based assays are used to determine the “apparent pKa” of the lipid nanoparticles. Both fluorescence assays are evaluated on a Varioskanlux plate reader (ThermoScientific).
A Zetasizer Nano ZS (Malvern Instruments Ltd) is used to determine the zeta potential of the nanoparticle compositions. Briefly, a 5 uL aliquot of an approximately 0.5 mg mRNA/mL sample is diluted into 800 uL 0.1×PBS. This sample is then transferred to a disposable conducting cuvette and the zeta potential is measured.

[2] = Encapsulation efficiency, fluorescence based Ribogreen assay; assay type: physicochemical; details: LNP, hEPO mRNA, Lipid:Cholesterol:DSPC:PEG-2k 50:38.5:10:1.5, N:P 6
Experimental: For lipid nanoparticle formulations containing an RNA, a QUANTIT™ RIBOGREEN® RNA assay (Invitrogen Corporation) is used to evaluate the encapsulation of RNA within the lipid nanoparticle formulation.
The samples are diluted to ˜10 ug/ml in TE buffer. In a 96 well plate, 50 ul of the diluted sample is added to 50 uL TE buffer in duplicates and 20 uL of diluted sample is added to 80 uL Triton X buffer (2% triton in TE buffer) in duplicates. The plate is incubated for 10 minutes at room temperature. Next, RIBOGREEN® is diluted 1:200 in TE BUFFER, and 100 uL is added to each sample well. The fluorescence intensity is measured using a fluorescence plate reader (e.g., Varioskanlux, ThermoScientific) at an excitation wavelength of about 480 nm and an emission wavelength of about 520 nm. The encapsulation efficiency can be determined by using the percentage ratio of non-encapsulated RNA (TE sample) over the total RNA (TX sample), then subtracting from 100 to find the percentage of encapsulated RNA amount.
(§2) LNPs were characterized by dynamic light scattering (DLS) measurement for measuring its hydrodynamic radius and polydispersity index (PDI). Encapsulation efficiency (EE %) and total RNA concentration were quantitated using a fluorescence based Ribogreen assay.

C57BL/6 female mice = assay: In vivo hEPO expression of hEPO mRNA LNPs, serum ELISA; details: LNP 50:38.5:10:1.5, N:P 6, 0.2 mg/kg hEPO mRNA, tail vein injection, blood serum 6 h post-administration
Experimental: In this example, messenger RNA molecules encoding hEPO proteins were formulated in lipid nanoparticles for delivery in vivo. The lipid nanoparticle (LNP) formulations comprised of a lipid composition of ionizable lipid: helper lipid: cholesterol. DMG-PEG2k at 50:10:38.5:1.5 mol %. The lipid mixture in ethanol was mixed with hEPO mRNA in RNA acidifying buffer (10 mM citrate, pH 4) at an ionizable-lipid-nitrogen-to-RNA-phosphate ratio (N:P) of 6 using a microfluidic device (Precision NanoSystems, Inc.) at a combined flow rate of 10 mL/min (7.5 mL/min for aqueous buffer, RNA and 2.5 mL/min for ethanol, lipid mix). The resulting particles were neutralized by buffer exchange into Dulbecco's phosphate buffer solution via PD-10 desalting column. The neutralized particles were concentrated using 100 kDa AMICON® Ultra centrifugal filters and sterile filtered using 0.2 um syringe filters. Samples were then characterized and diluted as needed (3 replicates).
The in vivo studies were performed in C57BL/6 female mice at 6 to 8 weeks weighing in at approximately 20 g. The LNPs formulated with different ionizable lipids at 0.2 mg/kg of hEPO mRNA were administered by tail vein injection and animals were euthanized at 6 h post-administration for blood serum sample collection. The hEPO levels from the samples were analyzed and cross-compared by enzyme-linked immunoassay (ELISA) according to manufacturer's protocol. The hEPO expression levels for each of the LNPs was compared to a control LNP comprising SM102 (DC Chemicals Cat. No. DC52025). (FIG. 1).

[3] = LNP size and polydispersity index by dynamic light scattering (DLS); assay type: physicochemical; details: hEPO mRNA, Lipid:Cholesterol:DSPC:PEG-2k 50:38.5:10:1.5, N:P 6
Description: as §1
After formulation and processing of the lipid nanoparticle compositions, the Z-average size of lipid nanoparticle composition are assayed by dynamic light scattering (DLS) (e.g., using a Wyatt Dynapro Platereader III or Malvern Zetasizer ZS). Briefly, an aliquot of 2 uL of the processed nanoparticle composition mixture (at an RNA concentration of approximately 0.5 mg/mL) is diluted into 50 uL phosphate buffered saline (0.1×PBS) and loaded into a 384 well plate. The sample is then analyzed to determine nanoparticle size.
as §2

[4] = Apparent pKa of LNPs (TNS assay); assay type: physicochemical; details: LNP, hEPO mRNA, Lipid:Cholesterol:DSPC:PEG-2k 50:38.5:10:1.5, N:P 6
Description: as §1
The apparent pKa of lipid nanoparticle composition is measured using a 6-(p-Toluidino)-2-naphthalenesulfonic acid (TNS) assay. Briefly, lipid nanoparticles (10 uL of approximately 0.5 mg mRNA/mL) and TNS probe (40 uL of 1 mM stock) are added to 750 uL of TNS buffer (25 mM citric acid, 20 mM sodium phosphate, 150 mM NaCl, and 20 mM ammonium acetate), at a pH ranging from 2 to 10. 20 uL of each sample are added to 80 uL of buffer at each pH in a 96-well plate. The plate is incubated for 10 minutes, and the fluorescence signal is measured by means of a spectrofluorometer (Varioskanlux, ThermoScientific) with excitation/emission settings of λex=321 nm, and λem=445 nm. The apparent pKa of the nanoparticle composition is determined by deriving the pH at which 50% of the pH 2 fluorescent signal is present. All datapoints are normalized to the fluorescent signal at pH 2.

| Compound | Zeta [1] | EE [2] | hEPO (C57BL/6 female mice) | PDI [3] | Size [3] | pKa [4] |
| --- | --- | --- | --- | --- | --- | --- |
| CCCCCCCCCNP(=O)(OCC)OCCCCCN(CCO)CCCCCCCC(=O)OC(CCCCCCCC)CCCCCCCC (centres unmarked) [Lipid 16] | −0.4 mV | 88.1% | 79.22 ng/mL | 0.116 | 91.6 nm | 7.0 |
| CCCCCCCCCNP(=O)(OCCCCCCCCC)OCCCCCCCN(CCO)CCCCCOP(=O)(NCCCCCCCCC)OCCCCCCCCC (centres unmarked) [Lipid 13] | 2.4 mV | 96.7% | 49.71 ng/mL | 0.108 | 67.1 nm | 7.8 |
| CCCCCCCCC(CC)OC(=O)CCCCCCCN(CCCCCCCC(=O)OC(CCCCCCCC)CCCCCCCC)CCCNc1cc(N)n[nH]1 (centres unmarked) [Lipid 22] | −15.3 mV | 99.9% | 78.29 ng/mL | 0.159 | 62.7 nm | 5.8 |
| CCCCCCCCCOP(=O)(NCCCCCN(CCO)CCCCCCCC(=O)OC(CCCCCCCC)CCCCCCCC)OCC (centres unmarked) [Lipid 11] | 2.6 mV | 99.7% | 63.81 ng/mL | 0.08 | 94.4 nm | 7.3 |
| CCCCCCCCC(CC)OC(=O)CCCCCCCN(CCCCCCCC(=O)OC(CCCCCCCC)CCCCCCCC)CCCNS(=O)(=O)NC (centres unmarked) [Lipid 19] | −27.6 mV | 96.9% | 1014.79 ng/mL | 0.183 | 60.9 nm | 6.3 |
| CCCCCCCCCCCOC(=O)CCCCCN(CCO)CCCCCCCOP(=O)(NCCCCCCCC)OCCCCCCCC (centres unmarked) [Lipid 8] | 0.1 mV | 94.2% | 93.09 ng/mL | 0.302 | 134.7 nm | 7.0 |
| CCCCCCCCCCNP(=O)(OCC)OCCCCCN(CCO)CCCCCCCC(=O)OC(CCCCCCCC)CCCCCCCC (centres unmarked) [Lipid 15] | 0.2 mV | 94.8% | 123.69 ng/mL | 0.165 | 83.1 nm | 7.0 |
| CCCCCCCCCCCNP(=O)(OCC)OCCCCCN(CCO)CCCCCCCC(=O)OC(CCCCCCCC)CCCCCCCC (centres unmarked) [Lipid 14] | 0.9 mV | 98.3% | 33.98 ng/mL | 0.248 | 101.5 nm | 6.9 |
| CCCCCCCCCCCCCCOC(=O)CCN(CCO)CCCCCCCC(=O)OC(CCCCCCCC)CCCCCCCC [Lipid 1] | −8.8 mV | 97.9% | 0.00 ng/mL | 0.267 | 65.8 nm | 5.1 |
| CCCCCCCCC(CC)OC(=O)CCCCCCCN(CCCCCCCC(=O)OC(CCCCCCCC)CCCCCCCC)CCCNS(=O)(=O)N(C)C (centres unmarked) [Lipid 20] | −14.5 mV | 95.2% | 361.46 ng/mL | 0.162 | 58.6 nm | 6.6 |
| CCCCCCCCCCCOP(=O)(NCCCCCN(CCO)CCCCCCCC(=O)OC(CCCCCCCC)CCCCCCCC)OCC (centres unmarked) [Lipid 9] | – | – | 184.44 ng/mL | – | – | 7.0 |
| CCCCCCCCC(CC)OC(=O)CCCCCCCN(CCCCCCCC(=O)OC(CCCCCCCC)CCCCCCCC)CCCNc1nnc(N)[nH]1 (centres unmarked) [Lipid 17] | −14.1 mV | 98.8% | 6.59 ng/mL | 0.169 | 75.1 nm | 6.1 |
| CCCCCCCCCCCCOC(=O)CCN(CCO)CCCCCCCC(=O)OC(CCCCCCCC)CCCCCCCC [Lipid 3] | −9.2 mV | 97.6% | 0.00 ng/mL | 0.48 | 62.8 nm | 5.1 |
| CCCCCCCCCCCOC(=O)CCCCCN(CCO)CCCCCCCOP(=O)(NCCCCCCCCC)OCCCCCCCCC (centres unmarked) [Lipid 7] | −2.0 mV | 97.2% | 80.47 ng/mL | 0.296 | 145.3 nm | 6.9 |
| CCCCCCCCC(CC)OC(=O)CCCCCCCN(CCCCCCCC(=O)OC(CCCCCCCC)CCCCCCCC)CCCn1nc(N)nc1N (centres unmarked) [Lipid 21] | −12.3 mV | 96.4% | 0.00 ng/mL | 0.277 | 83.3 nm | 6.5 |
| CCCCCCCCCCCOC(=O)CCCCCN(CCO)CCCCCCCNP(=O)(OCCCCCCCCC)OCCCCCCCCC [Lipid 5] | −1.0 mV | 95.3% | 114.89 ng/mL | 0.358 | 87.4 nm | 6.8 |
| CCCCCCCCCCCOC(=O)CCCCCN(CCO)CCCCCCCNP(=O)(OCCCCCCCC)OCCCCCCCC [Lipid 6] | −0.4 mV | 95.8% | 304.28 ng/mL | 0.227 | 132.7 nm | 6.9 |
